Results filed as inconclusive are left out. Active and inactive are the calls of the source.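 How the source made its calls: active means Green signal of the normal strain falls at least twice as much as red signal of the resistant mutant, with overall culture growth loss under a set limit; inconclusive means no clear call, values can overlap the other calls; inactive means the rest.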
Test system: E. coli WT ribosome GFP fluorescence, mixed culture, 24 h
Experiment: wild-type E. coli growth inhibition versus h38 humanized strain – h38 mutant RFP, wild-type GFP, cherry-pick, dose response (AID 977622)
[1] = E. coli mixed culture, 24 h, measured here: total growth OD600

Row | Compound | AC50 | AC50 [1] [µM]
1 | COCCN(C(=O)c1ccccc1F)c1nnc(-c2ccc(OC)cc2)s1 | > 100 µM (inactive) | > 100
2 | COc1ccc(OCC(=O)N2c3ccccc3CC2C)c([N+](=O)[O-])c1 (stereo not drawn) | > 100 µM (inactive) | > 100
3 | Nc1ccccc1C#CC(=O)c1ccccc1 | > 100 µM (inactive) | 
4 | COc1ccccc1CN1Cc2ccccc2Oc2ccccc2S1(=O)=O | > 100 µM (inactive) | 
5 | COc1ccc(OC2C(=O)N(Cc3ccc4c(c3)OCO4)C2c2cccs2)cc1 (stereo not drawn) | > 100 µM (inactive) | 
6 | COc1cccc(C(=O)NC2CC3CCCC(C2)N3S(=O)(=O)c2ccccc2)c1 (stereo not drawn) | > 100 µM (inactive) | 41.4
7 | CC1CN(CC(=O)Nc2nc3ccccc3s2)CC(C)O1 (stereo not drawn) | > 100 µM (inactive) | 
8 | O=C(O)c1ccc2c(c1)N(Cc1ccc(F)cc1)C(=O)c1ccccc1S2 | > 100 µM (inactive) | 
9 | O=C(Cc1cccc(NC(=O)C2CCN(C(=O)C3CCCCC3)CC2)c1)Nc1cccc(C(=O)N2CCCC2)c1 | > 100 µM (inactive) | > 100
10 | COc1ccc(C#Cc2ccc([C@@H]3[C@@H](CO)N4CCCCN(C(=O)Nc5ccc(F)cc5)C[C@H]34)cc2)cc1 |  | 50.6
11 | COc1ccc(OC2C(=O)N(Cc3ccc4c(c3)OCO4)C2c2sccc2C)cc1 (stereo not drawn) | > 100 µM (inactive) | 
12 | Fc1ccc(-c2nnc(-c3ccc4ccccc4c3)o2)cc1 | > 100 µM (inactive) | 
13 | COc1ccccc1CNC(=O)CN1C(=O)NC(c2ccccc2)(c2ccccc2)C1=O | > 100 µM (inactive) | 
14 | Cc1cc(C(=O)OCC(=O)Nc2cccc(S(N)(=O)=O)c2)c2ccccc2n1 | > 100 µM (inactive) | > 100
15 | O=C(CCCOc1ccc(Cl)cc1Cl)Nc1ccccc1C(=O)O | > 100 µM (inactive) | 
16 | COC(=O)c1c(NC(=O)CCC(=O)O)sc(Cc2ccccc2)c1C | > 100 µM (inactive) | 18.8
17 | Nc1ccc(C(=O)OCCc2ccccc2)cc1 | > 100 µM (inactive) | 
18 | COC(=O)CN1C(=S)N(c2ccc(Cl)cc2)C(=O)C1CC(=O)Nc1ccc(F)cc1 (stereo not drawn) | > 100 µM (inactive) | 
19 | O=C(CSc1nnc(COc2cccc3cccnc23)o1)c1ccc(F)cc1 |  | > 100
20 | CCCn1c(=O)c2ccccc2n2c(SCCOc3ccc(OC)cc3)nnc12 | > 100 µM (inactive) | 
21 | CCOc1ccc(-c2nc(-c3cccs3)c(CC(=O)O)s2)cc1OC |  | > 100
22 | C[C@@H]1CN([C@H](C)CO)C(=O)c2cccc(NC(=O)c3ccncc3)c2O[C@@H]1CN(C)S(=O)(=O)c1ccc(Cl)cc1 | > 100 µM (inactive) | 
23 | CSc1ccccc1NC(=O)c1ccccc1N(Cc1ccccc1)S(C)(=O)=O | > 100 µM (inactive) | 

Row | Compound | AC50 | AC50 [1] [µM]
24 | Cc1ccc(S(=O)(=O)NCc2c(-c3ccccc3)noc2C)cc1 | > 100 µM (inactive) | 
25 | O=C(CC(c1ccccc1)c1cc(Br)ccc1O)N1CCCC1 (stereo not drawn) | > 100 µM (inactive) | 
26 | Brc1ccc(-n2cnc(-c3ccccc3)c2)cc1 | > 100 µM (inactive) | 
27 | O=C(NCCc1ccc(Cl)cc1)c1ccc2nc[nH]c2c1 | > 100 µM (inactive) | 
28 | O=c1[nH]c(C2CCN(S(=O)(=O)c3ccc4c(c3)OCCO4)CC2)nc2c1nnn2Cc1ccccc1F | > 100 µM (inactive) | 
29 | CCOC(=O)C1CCCN(C(=O)c2csc(-c3ccc4c(c3)CCO4)n2)C1 (stereo not drawn) | > 100 µM (inactive) | 
30 | O=C(O)c1cccnc1SCc1ccccc1Cl | > 100 µM (inactive) | 42.8
31 | COc1ccccc1C(=O)Nc1ccc2c(c1)nc1n2CCN(C2CCCCC2)C1 | > 100 µM (inactive) | 
32 | CN(C)C(=O)C1C2NC(=S)N(c3cccc(Cl)c3)C1(C)Oc1ccc(Cl)cc12 (stereo not drawn) | > 100 µM (inactive) | > 100
33 | Cc1onc(-c2ccccc2Cl)c1C(=O)OCC(=O)c1ccccc1 |  | > 100
34 | COC(=O)c1ccc(CN2CCCC(CO)(Cc3ccccc3F)C2)cc1 (stereo not drawn) | > 100 µM (inactive) | 
35 | COCc1c(C#N)c(NCCc2ccc(F)cc2)nc(C)c1[N+](=O)[O-] | > 100 µM (inactive) | 
36 | OC(COc1ccc(Cl)cc1)CN1CCN(c2ccccn2)CC1 (stereo not drawn) |  | > 100
37 | C=CCNc1ccc2c(c1)OC[C@H](CC(C)C)NS2(=O)=O |  | > 100
38 | CCOC(=O)C(CC)Sc1cc(C)nc2ccc(OC)cc12 (stereo not drawn) |  | > 100
39 | O=C(NCc1ccccc1)c1ccc(-c2cn[nH]c2)c2ccoc12 |  | > 100
40 | O=[N+]([O-])c1ccc2nc(-c3ccccc3[N+](=O)[O-])[nH]c2c1 | > 100 µM (inactive) | > 100
41 | CCC(C)c1ccccc1NC(=O)c1cccc(-n2cnnn2)c1 (stereo not drawn) |  | > 100
42 | O=C(Nc1ccn(Cc2ccc(Cl)cc2)n1)c1ccccc1 |  | > 100
43 | CC(=O)Nc1cccc(-c2ccnc3c2CC(C(=O)Nc2ccc4c(c2)OCO4)O3)c1 (stereo not drawn) | > 100 µM (inactive) | 
44 | O=C(NCc1ccc(-c2nc3ccccc3s2)cc1)c1ccco1 | > 100 µM (inactive) | 3
45 | CCOc1ccc(N(CC(=O)NC(C(C)C)C(C)C)S(=O)(=O)c2ccc(OC)c(OC)c2)cc1 | > 100 µM (inactive) | 50.9
46 | CCCN(CC(=O)Nc1ccccc1C)C(=O)c1cccc(S(=O)(=O)N2CCc3ccccc3C2)c1 | > 100 µM (inactive) | 

Row | Compound | AC50 | AC50 [1] [µM]
47 | COc1ccc(C(=O)NCCc2ccccn2)cc1S(=O)(=O)Nc1ccc(Br)cc1 | > 100 µM (inactive) | 
48 | CCCCCCCNC(=O)c1ccc(N2CCC3(CC2)OCCO3)c([N+](=O)[O-])c1 |  | 40.4
49 | CC(=O)N1CCOc2ccc(S(=O)(=O)N(C)c3ccc(C)cc3)cc21 | > 100 µM (inactive) | 
50 | COC(=O)c1cc2c(c3c4cc(F)ccc4n(S(=O)(=O)c4cccc(C)c4)c13)C(=O)N(Cc1ccco1)C2 |  | > 100
51 | O=C(C[n+]1cc(-c2ccc(Cl)c(Cl)c2)n2c1CCC2)OCc1ccccc1 | > 100 µM (inactive) | 
52 | CN1OC[C@@H]2CN(C(=O)c3ccco3)[C@H](c3ccc(-c4ccc(C#N)cc4)cc3)C[C@@H]21 |  | > 100
53 | CC(=O)Nc1cccc(OCCCOc2cccc([N+](=O)[O-])c2)c1 |  | > 100
54 | O=C(Cn1c(CO)nc2ccccc21)NCCc1ccc(F)cc1 | > 100 µM (inactive) | 
55 | Cc1ccc2nc(-c3ccc(Cl)cc3)c(Cc3ccccc3C(F)(F)F)n2c1 |  | > 100
56 | Nc1[nH]c(C(=O)c2ccccc2)c(-c2ccc3c(c2)OCO3)c1C(=O)NCCc1c[nH]c2ccccc12 |  | > 100
57 | S=c1nc(-c2cc(Cl)cc(Cl)c2)[nH][nH]1 | > 100 µM (inactive) | 
58 | CCN(CC)S(=O)(=O)c1ccc(O)c(C(=O)OCC(=O)NC23CC4CC(CC(C4)C2)C3)c1 |  | > 100
59 | CCCc1nc2cc(C)c(Br)c(C)n2c1CC1CCCCC1 | > 100 µM (inactive) | 
60 | CCN(CC)CCN(C(=O)c1ccccc1OC)c1nc2ccc(F)cc2s1 | > 100 µM (inactive) | > 100
61 | O=C(NCCc1ccccc1)c1cccc(NC(=O)c2ccccc2)c1 | > 100 µM (inactive) | 
62 | Cc1cc(C(=O)Nc2cccc3c2O[C@H](CN(C)S(=O)(=O)c2ccc(Cl)cc2)[C@H](C)CN([C@H](C)CO)C3=O)n(C)n1 | > 100 µM (inactive) | 27.8
63 | COc1ccc(CNC(=O)c2sc3nc4c(c(C(F)(F)F)c3c2N)CCC4)cc1OC |  | > 100
64 | C[C@@H]1CN([C@H](C)CO)C(=O)CCCn2nncc2CO[C@@H]1CN(C)C(=O)Nc1ccc(C(F)(F)F)cc1 | > 100 µM (inactive) | 
65 | Cc1ccccc1S(=O)(=O)NC(=O)C1(C)CCN1C(=O)C1(c2ccc(Cl)cc2)CC1 (stereo not drawn) | > 100 µM (inactive) | 
66 | O=C(Nc1cccc(Cl)c1)N1C[C@@H]2[C@H](c3ccccc31)[C@H](CO)N2Cc1ccncc1 |  | > 100
67 | COc1ccc(CNS(=O)(=O)c2ccc3c(c2)NC(=O)C(C)S3)cc1 (stereo not drawn) | > 100 µM (inactive) | 
68 | CCCC[n+]1ccn(-c2nc3ccccc3nc2[N-]S(=O)(=O)c2cccs2)c1 | > 100 µM (inactive) | > 100
69 | CN(C)C(CNS(=O)(=O)c1cc([N+](=O)[O-])ccc1Cl)c1ccco1 (stereo not drawn) | > 100 µM (inactive) | > 100

Row | Compound | AC50 | AC50 [1] [µM]
70 | O=C1c2cccc3cccc(c23)C(=O)N1CCCn1ccnc1 | > 100 µM (inactive) | 51.6
71 | Cc1cc(-c2ccc(C)c(S(=O)(=O)NC(C)Cc3ccco3)c2)on1 (stereo not drawn) | > 100 µM (inactive) | 46.2
72 | CO[C@@H]1CN(C)C(=O)c2cc(NC(=O)C3CCCC3)ccc2OC[C@@H](C)N(C(=O)Nc2ccc(C(F)(F)F)cc2)C[C@H]1C | > 100 µM (inactive) | 49.5
73 | CNC(=O)c1ccsc1NC(=O)c1ccc2c(c1)CCCC2 | > 100 µM (inactive) | > 100
74 | Cc1c(Cc2ccc3c(c2)OCO3)sc(NC(=O)C2CC2)c1C(N)=O | > 100 µM (inactive) | 34.7
75 | CSc1ccc(CN(C)C(=O)C(c2ccccc2)c2ccccc2)cc1 |  | > 100
76 | COc1ccc(Cl)cc1C(=O)OCC(=O)c1ccc[nH]1 | > 100 µM (inactive) | 
77 | COc1cc(C(=O)NCCc2c[nH]c3ccccc23)ccc1OCc1c(C)noc1C | > 100 µM (inactive) | > 100
78 | Cc1cccc(N2CCN(Cc3nc(-c4ccc(F)cc4F)oc3C)CC2)n1 |  | > 100
79 | CCOC(=O)c1cccc(OS(=O)(=O)Cc2ccccc2)c1 | > 100 µM (inactive) | > 100
80 | Cc1ccc(CNC(=O)c2ccc(Br)o2)cc1 | > 100 µM (inactive) | 
81 | O=C(c1cc2cc(F)ccc2[nH]1)N1CCN(Cc2ccc3c(c2)OCO3)CC1 | > 100 µM (inactive) | 20.8
82 | O=C1C(c2ccccc2)c2ccccc2N1Cc1ccccc1 (stereo not drawn) | > 100 µM (inactive) | 
83 | O=c1[nH]c(C2CCCN(S(=O)(=O)c3ccccc3Cl)C2)nc2c1nnn2Cc1ccc2c(c1)OCCO2 (stereo not drawn) | > 100 µM (inactive) | 
84 | CCCCc1ccc(S(=O)(=O)Nc2ccc(C)c(NS(C)(=O)=O)c2)cc1 | > 100 µM (inactive) | 51.4
85 | COc1ccc(C)c2sc(N(CCN(C)C)C(=O)c3ccc(S(=O)(=O)N(C)c4ccccc4)cc3)nc12 |  | > 100
86 | COc1cccc(-n2nnnc2SCC(=O)NCc2ccc3c(c2)OCO3)c1 | > 100 µM (inactive) | 
87 | CCOC(=O)c1sc(Nc2cccc(Cl)c2)nc1C |  | > 100
88 | CCCN1C(=O)C(O)(c2c(C)[nH]c3ccccc23)c2ccccc21 (stereo not drawn) |  | > 100
89 | Nc1ccccc1Nc1ccc([N+](=O)[O-])cc1[N+](=O)[O-] | > 100 µM (inactive) | 

Source: PubChem BioAssay AID977622 (Broad Institute, 2014)
